Measurements taken from patent US20260069653A1, “COMPLEMENT INHIBITOR DOSING REGIMENS” (Apellis Pharmaceuticals, Inc., priority 2021, published 2026).

How the values were obtained:
[1] = Serum concentration of PEG after single IV infusion, ascending dose study; assay type: in vivo, human; details: for peak concentration (Cmax), mean serum concentration: healthy subjects
[2] = tested on: alternative complement pathway hemolytic activity (AH50); assay: AH50 hemolytic assay on serum after single IV infusion; assay type: in vivo, human
Method: AH50 Method: AH50 was measured by a hemolytic assay based on lysis of rabbit red blood cells (RA) due to activation of complement on the cell's surface. The AH50 (50% Alternative Complement Hemolytic dose) was determined for each component by adding a limiting amount of the test serum or plasma. For this assay, the buffers are created such as to block activity of the classical pathway, which requires calcium. Serial dilutions of the test specimen were mixed with equal volumes of the RA. This functional assay measured the amount of hemoglobin that was released when the target cells were lysed by the action of complement, and from this, the percentage of the cells that had been lysed was calculated. The major peak of the hemoglobin spectrum was read at 415 nm wavelength. For each assay the run was verified with a five-point standard and five points of characterized QC control.
AH50 Calculations: For verifiable continuity between assay runs, the AH50 assay was performed using a human serum standard with known AH50 activity. […] If the dilution series produced lysis that spanned the 50% point, the three points closest to the 50% point were used to determine the slope and intercept of the line by linear regression. If the percent lysis was very low and none of the dilutions produced 50% lysis, then the two highest points in the series were used, because the slope changes drastically as the sigmoid curve reaches its lower limit. Each specimen from the study was diluted in the same manner and individual 50% lysis points determined by linear regression.

[3] = tested on: total complement hemolytic activity (CH50); assay: CH50 after single IV infusion; assay type: in vivo, human
C3a = C3a levels (ELISA) after single IV infusion; assay type: in vivo, human
Method: C3a Split Product Testing: C3a was measured by ELISA (BD Pharmingen optEIA) using microtiter plates precoated with specific monoclonal antibodies against C3a. The standards, controls and test specimens were diluted and placed in duplicate into the wells and incubated to allow binding of the split products to the antibodies in the well. After washing away unbound proteins, a second anti-split products antibody, conjugated to an enzyme (horseradish peroxidase) was allowed to react with the split products bound to the first antibody on the plate. After an appropriate incubation time and washing, a chromogenic substrate for the enzyme was added to the wells, and the intensity of color that developed was determined spectrophotometrically. Three QC specimens were run on every assay.
C3a ELISA Calculations: The optical densities (OD) for each of the wells containing the standards for the assay were entered as the dependent variables (Y) in a linear regression calculation (Microsoft Excel) in which the concentrations of the standards (provided by the kit manufacturer, BD Pharmingen) were the independent variables (X). The slope (m) and intercept (b) obtained from the regression analysis on a log-log were then used to calculate the concentrations of the unknowns (controls and test specimens). The formula for a straight line was used to calculate the unknown values using a log/log solution: LnY=mLnX+b, solved for X: X=exp (LnY−b)/m*dilution.

acute hemolysis [4] = assay: LDH during intensive dosing for acute hemolysis in PNH patients; assay type: in vivo, human
Source text: (§1) Eligibility criteria for the intensive dosing regimen included lactate dehydrogenase (LDH) >2× the upper limit of normal (ULN) and one new or worsening sign or symptom of hemolysis (e.g., decreased hemoglobin (Hb), hemoglobinuria, or fatigue).
(§2) Patients who experienced additional acute hemolysis events after receiving intensive PEG treatment received additional doses of intensive SC PEG or intensive IV PEG. […] Analyzed data relates to the first event if a patient experienced multiple acute hemolysis events.
(§3) Levels of Hb (on day 1) and LDH (on day 1, day 2, days 7-12, days 14-19) during the event of acute hemolysis were determined. […] For each patient, at least 6 days were between the measurements on day 7-12 and day 14-19. Safety was evaluated by the incidence and severity of adverse events.

acute hemolysis [5] = assay: Hemoglobin during intensive dosing for acute hemolysis in PNH patients; assay type: in vivo, human; details: patients with and without RBC transfusion (FIG. 6)
Source text: as §1, §2, §3

[6] = Safety of intensive dosing in PNH patients; assay type: in vivo, human; details: intensive PEG treatment
Source text: as §1, §2, §3

[7] = human, in vivo
Method: (§4) Subjects were monitored during a safety period from Day 2 to 8 by physical examination, ECG, hematology, serum chemistry, monitoring for injection site reaction and treatment emergent adverse events (TEAEs). Follow-up safety assessments were performed on Days 15, 22, 29, and 43.

[8] = Safety in healthy volunteers, ascending dose study
Method: as §4

With “Poly(oxy-1,2-ethanediyl), α-hydro-ω-hydroxy-, 15,15′-diester with N-acetyl-L-isoleucyl-L-cysteinyl-L-valyl-1-methyl-L-tryptophyl-L-glutaminyl-L-α-aspartyl-L-tryptophylglycyl-L-alanyl-L-histidyl-L-arginyl-L-cysteinyl-L-threonyl-2-[2-(2-aminoethoxy)ethoxy]acetyl-N^6-carboxy-L-lysinamide cyclic (2-->12)-(disulfide) [PEG]” the terminal elimination half-life ([1]; Cohort 4 (2300 mg single IV)) was 11.9 days, the “peak concentration (Cmax), mean serum concentration” value (shortened to “peak concentration (Cmax)”) ([1]; single IV 200 mg, at 1 hr post-dose (infusion start)) was 61 µg/mL and the “peak concentration (Cmax)” value ([1]; single IV 600 mg, at 1 hr post-dose (infusion start)) was 193 µg/mL. The “peak concentration (Cmax)” value ([1]; single IV 1500 mg, at 4 hrs) was 542 µg/mL, the “peak concentration (Cmax)” value ([1]; single IV 2300 mg, at 1 hr post-dose (infusion start)) was 708 µg/mL and the “AH50 level from 1 hr post-dosing start” value ([2]; 1500 and 2300 mg single IV doses) was “undetectable levels”. For the same substance, the “time within which decreases in mean AH50 values were detected” value ([2]; all PEG cohorts (200-2300 mg single IV)) was ≤ 1 h, the “mean maximum decrease of AH50 compared to placebo” value ([2]; all PEG groups, p<0.0001) was “statistically significant larger” and the “time for which decrease in mean AH50 was maintained” value ([2]; single IV 200 mg) was “at least 12 hrs”. The “time for which decrease in mean AH50 was maintained” value ([2]; single IV 600 mg) was ≥ 72 h, the “time for which decrease in mean AH50 was maintained” value ([2]; single IV 1500 mg) was ≥ 144 h and the “Mean CH50 upon dosing” value ([3]; all cohorts) was “decreased immediately”. For the same substance, the “time for which decrease in mean CH50 was retained” value ([3]; single IV 1500 mg) was “at least 48 hours”, the “time by which mean CH50 returned to baseline” value ([3]; single IV 2300 mg, post-dosing start) was ≤ 24 h and the “time within which initial rapid decrease in mean C3a levels occurred” value (C3a; all PEG groups) was ≤ 1 h. For the same substance, the “time of trough mean C3a levels after dosing” value (C3a; all dose groups) was ≤ 24 h, the “maximum mean C3a decrease from baseline” value (C3a; single IV 1500 mg, at 4 hours post-dosing start) was 57% and the “patients with LDH levels decreased at day 7-12” value (acute hemolysis [4]; all 13 patients, intensive SC or IV PEG) was 13 patients. The “patients with LDH levels decreased between day 1 and day 2” value (acute hemolysis [4]; all evaluable patients, intensive SC or IV PEG 1080 mg) was 8 of 12, the “patients with LDH levels further decreased from day 7-12 to day 14-19” value (acute hemolysis [4]; all patients, intensive SC or IV PEG) was 11 of 13 and the “patients with LDH levels further decreased from day 7-12 to day 14-19” value (acute hemolysis [4]; intensive IV PEG) was 3 of 4. For the same substance, the “patients with LDH levels decreased between day 1 and day 2” value (acute hemolysis [4]; intensive IV PEG (single 1080 mg dose)) was 4 of 4, the “patients with LDH levels further decreased from day 7-12 to day 14-19” value (acute hemolysis [4]; intensive SC PEG) was 7 of 9 and the “patients with LDH levels decreased between day 1 and day 2” value (acute hemolysis [4]; intensive SC PEG (1080 mg every 24 hours for 3 doses)) was 4 of 8. The “mean Hb from day 1 of intensive therapy” value (acute hemolysis [5]) was “increased”, the “patients with serious adverse events” value ([6]; 4 of 13 patients) was 31% and the “patients with treatment-emergent adverse events” value ([6]; Nine of 13 patients) was 69%. The “adverse events leading to treatment discontinuation” value [6] was “None of the adverse events led to treatment discontinuation”, the “adverse events of meningitis or thrombosis” value [6] was “No adverse events of meningitis or thrombosis occurred” and the “share of treatment-emergent adverse events that were mild” value [6] was 76%. The “incidence of upper respiratory infections (TEAE)” value [7] was 12.5%, the “subjects with moderate TEAE (infusion-related reaction, dizziness, clamminess, nausea) that led to study discontinuation” value ([8]; 2300 mg cohort, one subject, percent of the twenty subjects) was 5.0% and the “incidence of diarrhea (TEAE)” value ([8]; PEG groups, n=2) was 12.5%. For the same substance, the “incidence of headache (TEAE)” value ([8]; PEG groups, n=6) was 37.5% and the “serious adverse events, deaths, severe TEAEs” value ([8]; healthy subjects, single IV 200-2300 mg) was “No serious adverse events, deaths, or severe TEAEs occurred”.
